# Results reported in patent publication US20240270821A1, “GIP/GLP1/GCG TRI-RECEPTOR AGONISTS AND USES THEREOF” (priority 2023, published 2024).
# Like-named read-outs stand apart in the source and are kept apart here. Starred links: 1 amine or outer side, 2 acyl side, 3 side chain; linkers in the order of their positions; H or OH if unused. Non-standard residues stand in square brackets, D forms with d. Groups on a side chain read outwards from the residue. No end group written: not given here. *: point of attachment. C18 diacid = O=C(O)CCCCCCCCCCCCCCCCC(=O)*; αMePhe(2-F) = C[C@](N)(Cc1ccccc1F)C(=O)O; γGlu = O=C(O)[C@H](CCC(=O)[*:2])N[*:1]; αMe4Pal = C[C@](N)(Cc1ccncc1)C(=O)O; αMeY = C[C@](N)(Cc1ccc(O)cc1)C(=O)O; 4Pal = N[C@@H](Cc1ccncc1)C(=O)O; αMeL = CC(C)C[C@](C)(N)C(=O)O; αMeS = C[C@](N)(CO)C(=O)O; Orn = NCCC[C@H](N)C(=O)O; AEEA = NCCOCCOCC(=O)O; Aib = CC(C)(N)C(=O)O
# Legend:
# Format in all cases: cell-based
# [1] = biological target: T1, hGIPR (Homo sapiens, UniProt P48546); test: Functional cAMP activation in the presence of 0.1% casein (no HSA); details: read-out: Relative cAMP EC50, hGIPR;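 further: intracellular cAMP rise after 30 min at 37 °C read by HTRF against a standard curve, scaled between buffer alone (0%) and top control ligand concentration (100%), four-parameter fit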
# T1 sequence (P48546 22-466): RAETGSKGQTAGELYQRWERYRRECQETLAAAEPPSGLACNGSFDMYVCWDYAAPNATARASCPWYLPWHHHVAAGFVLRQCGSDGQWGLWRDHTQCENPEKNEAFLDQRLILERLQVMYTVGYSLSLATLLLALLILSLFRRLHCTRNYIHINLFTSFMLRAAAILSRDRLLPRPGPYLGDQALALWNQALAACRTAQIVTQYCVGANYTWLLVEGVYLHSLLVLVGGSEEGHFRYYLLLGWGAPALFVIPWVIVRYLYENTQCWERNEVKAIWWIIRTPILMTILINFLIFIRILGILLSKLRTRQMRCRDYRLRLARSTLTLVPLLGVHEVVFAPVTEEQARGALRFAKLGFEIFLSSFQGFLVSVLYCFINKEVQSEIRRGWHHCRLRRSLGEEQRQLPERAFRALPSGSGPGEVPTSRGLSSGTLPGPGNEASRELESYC
# [2] = biological target: human GcgR (Homo sapiens, UniProt P47871); test: Functional cAMP activity in the presence of 1% HSA; details: read-out: cAMP Rel EC50, hGcgR
# human GcgR, sequence (P47871 26-477): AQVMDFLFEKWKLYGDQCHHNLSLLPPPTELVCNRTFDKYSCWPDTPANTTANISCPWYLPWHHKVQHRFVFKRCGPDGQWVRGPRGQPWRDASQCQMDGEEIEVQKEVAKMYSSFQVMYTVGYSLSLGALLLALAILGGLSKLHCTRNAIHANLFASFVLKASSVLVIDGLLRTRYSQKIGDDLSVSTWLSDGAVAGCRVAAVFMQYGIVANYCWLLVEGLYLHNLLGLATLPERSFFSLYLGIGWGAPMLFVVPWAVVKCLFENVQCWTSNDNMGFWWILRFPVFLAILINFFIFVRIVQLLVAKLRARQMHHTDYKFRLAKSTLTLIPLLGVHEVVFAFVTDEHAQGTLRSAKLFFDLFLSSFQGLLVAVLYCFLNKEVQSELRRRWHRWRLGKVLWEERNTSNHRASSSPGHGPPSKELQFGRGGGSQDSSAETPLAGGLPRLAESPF
# [3] = biological target: T2, hGLP-1R (Homo sapiens, UniProt P43220); test: Functional cAMP activation in the presence of 0.1% casein (no HSA); details: read-out: Relative cAMP EC50, hGLP-1R;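 further: intracellular cAMP rise after 30 min at 37 °C read by HTRF, normalized between buffer only (0%) and maximal control ligand (100%), four-parameter variable-slope fit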
# T2 sequence (P43220 24-463): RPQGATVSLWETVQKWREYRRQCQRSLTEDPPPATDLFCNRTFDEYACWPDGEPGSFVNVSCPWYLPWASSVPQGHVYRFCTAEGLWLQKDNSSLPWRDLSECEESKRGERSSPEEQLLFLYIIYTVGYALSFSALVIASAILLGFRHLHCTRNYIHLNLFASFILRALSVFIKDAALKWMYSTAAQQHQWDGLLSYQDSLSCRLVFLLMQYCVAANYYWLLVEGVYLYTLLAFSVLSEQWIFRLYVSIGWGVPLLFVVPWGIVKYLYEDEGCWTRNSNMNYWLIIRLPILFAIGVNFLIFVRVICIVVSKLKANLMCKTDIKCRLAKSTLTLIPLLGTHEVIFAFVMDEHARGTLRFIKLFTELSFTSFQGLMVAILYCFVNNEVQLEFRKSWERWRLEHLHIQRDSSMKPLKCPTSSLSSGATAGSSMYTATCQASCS
# [4] = biological target: hGcgR (Homo sapiens, UniProt P47871); test: as above; details: read-out: Relative cAMP EC50, hGcgR;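 further: intracellular cAMP rise after 30 min at 37 °C, read by HTRF against a cAMP standard curve, scaled from buffer only (0%) to maximal control ligand response (100%)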
# hGcgR, sequence (P47871 26-477): as the sequence (P47871 26-477) above
# [5] = biological target: T2, hGLP-1R; test: Functional cAMP activity in the presence of 1% HSA; details: read-out: cAMP Rel EC50, hGLP-1R
# [6] = biological target: T1, hGIPR; test: Functional cAMP activity in the presence of 1% HSA; details: read-out: cAMP Rel EC50, hGIPR
# [7] = 0.1% casein, no HSA, geometric mean
# [8] = in the presence of 0.1% casein (no HSA), geometric mean
EC50 [1] [nM],EC50 [3] [nM],EC50 [4] [nM],"EC50 [1, 7] [nM]","EC50 [3, 7] [nM]","EC50 [4, 7] [nM]",Substance,EC50 [2] [nM],EC50 [5] [nM],EC50 [6] [nM],"EC50 [1, 8] [nM]","EC50 [3, 8] [nM]","EC50 [4, 8] [nM]"
0.152,0.337,3.8,,,,H-Y[Aib]QGT[αMePhe(2-F)]TSD[4Pal][αMeS]ILLD[Orn]K([γGlu-γGlu-C18 diacid])AQ[Aib][Orn]FI[dE][αMeY]LQEGGPSSGEPPPSGAE-NH2 [Example 547],237,27.7,7.26,,,
,,,0.00992,0.945,3.06,H-Y[Aib]QGT[αMePhe(2-F)]TSD[4Pal][αMeS]I[αMeL]LD[Orn]K([AEEA-γGlu-C18 diacid])AQ[αMe4Pal]EFI[dE][αMeY]LIEGGPPSGEPPPEGE-NH2 [Example 1191],243,82.3,0.931,,,
,,,,,,H-Y[Aib]QGTFTSD[4Pal]SQ[αMeL]LDKK([AEEA-γGlu-C18 diacid])AQ[αMe4Pal]AFIE[αMe4Pal]LIEGGPSSGAPPPSGSEE-NH2 [Example 954],450,357,35.3,0.268,4.79,3.66
,,,,,,H-Y[Aib]QGTFTSD[4Pal]SQ[αMeL]LDKK([AEEA-γGlu-C18 diacid])AQ[αMe4Pal]QFIE[αMeY]LIEGGPSSGAPPPSGS-NH2 [Example 855],1030,207,46.1,0.271,0.908,2.67
0.0127,0.271,2.7,,,,H-Y[Aib]QGT[αMePhe(2-F)]TSD[4Pal]SI[αMeL]LD[Orn]K([AEEA-γGlu-C18 diacid])AQ[αMe4Pal][Orn]FI[dE][αMeY]LIEGGPSSGEPPPESEE-NH2 [Example 753],351,38.2,1.86,,,
,,,,,,Y[Aib]QGTFTSD[4Pal]SQ[αMeL]LDKK([AEEA-γGlu-C18 diacid])AQ[αMe4Pal]AFIEYLIE[Aib]GPSSGAPPPSGS-NH2 [Example 810],540,256,23.6,0.156,2.09,3.3
,,,,,,H-Y[Aib]QGTFTSD[4Pal]S[Orn][αMeL]LD[Orn]K([γGlu-γGlu-C18 diacid])AQ[αMe4Pal][Orn]FIE[αMeY]LIEGGPSSGAPPPSGSEE-NH2 [Example 974],870,283,80.9,0.607,1.57,3.7
,,,,,,Y[Aib]QGTFTSD[4Pal]SQ[αMeL]LDKK([γGlu-γGlu-C18 diacid])AQ[αMe4Pal]AFIEYLIE[Aib]GPSSGAPPPSGS-NH2 [Example 858],678,258,13.1,0.0995,1.83,3.44
,,,,,,H-Y[Aib]QGTFTSD[4Pal]SQ[αMeL]LDKK([γGlu-γGlu-C18 diacid])AQ[αMe4Pal]AFIE[αMe4Pal]LIEGGPSSGAPPPSGS-NH2 [Example 951],657,382,18.2,0.156,2.61,5.73

Substance,EC50 [1] [nM],EC50 [3] [nM],EC50 [4] [nM],"EC50 [1, 7] [nM]","EC50 [3, 7] [nM]","EC50 [4, 7] [nM]",EC50 [2] [nM],EC50 [5] [nM],EC50 [6] [nM],"EC50 [1, 8] [nM]","EC50 [3, 8] [nM]","EC50 [4, 8] [nM]"
H-Y[Aib]QGT[αMePhe(2-F)]TSDYSILLDKK([γGlu-γGlu-C18 diacid])AQ[Aib]AFIEYLEEGGPSSGAPPPEEG-NH2 [Example 471],0.0296,0.317,2.19,,,,181,37.9,5.45,,,
